The values that follow are results of earlier work, collected in patent US11547692B2, “Complete animal food having cannabinoids in trace concentrations to avoid toxicity” (High Plains Nutrition, LLC, priority 2017, dated 2023).

The test system of this data set is psychotropic effects. As to conditions: humans; single administration; lowest dose tested; European Food Safety Authority (EFSA, 2011).

On to `CCCCCc1cc(O)c2c(c1)OC(C)(C)[C@@H]1CCC(C)=C[C@@H]21` [THC, Tetrahydrocannabinol], for which the “Lowest Observed Effect Level (LOEL), lowest effective dose for psychotropic effects” value is 0.04 mg THC/kg BW.
